{
  "source": "patent US20240277829A1",
  "about": "“HIV-1 VACCINATION AND SAMT-247 MICROBICIDE TO PREVENT HIV-1 INFECTION” (priority 2021, published 2024)",
  "type_in_all_cases": "cell-based",
  "key": {"[1]": {"system": "mucosal Th1 and Th2 cells", "assay": "Frequencies and cytokine levels of macaque rectal mucosal T cells following SAMT-247 and PMA stimulation", "conditions": "following PMA stimulation", "source_text": "Additionally, rectal tissue from 9 macaques was used for an in vitro study. The age-matched macaques from this separate study (P204) included 4 animals vaccinated against HIV and 5 naïve animals, all challenged with SHIV. Rectal tissue was obtained post challenge from 7 infected and 2 uninfected animals for the P204 study analysis. Extra cells were available from that collection and were used here for the in vitro study.\nFrequencies and cytokine levels of macaque rectal mucosal NK cells and T cells following SAMT-247 and PMA stimulation. NK/ILC and T cell frequencies and cytokine levels were measured in macaque rectal mucosa. Freshly collected rectal biopsies were processed to single cells and cultured in R10 in the presence/or absence of SAMT-247 and/or PMA for 12 hours. Subsequently, cells were stained for live cells with Live/Dead Blue dye (cat. #L34962, 0.5 μl) from Thermofisher; followed by surface staining with the following: BUV737 anti-CD3 (SP34-2; cat. #741872, 5 μl), BV711 anti-CD4 (L200; cat. #563913, 5 μl), BV650 anti-NKp44 (P44-8; cat. #744302, 5 μl), Alexa700 anti-CD20 (2H7; cat. #560631, 5 μl), BV786 anti-CD45 (D058-1283; cat. #563861, 5 μl) from BD Biosciences; APC-H7 anti-CD11b (ICRF44; cat. #47-0118-42, 5 μl), PE-Cy5 anti-CD95 (ICRF44; cat. #15-0959-42, 5 μl) from eBioscience; BV570 anti-CD8 (RPA-T8; cat. #301038, 5 μl), BV605 anti-CCR6 (G034E3; cat. #353420, 5 μl), APC anti-CXCR3 (G025H7; cat. #353708, 5 μl), from Biolegend and PE-Cy7 anti-NKG2A (Z199; cat. #B10246, 5 μl) from Beckman coulter for 30 minutes at room temperature. This was followed by permeabilization with a FOX3-transcription buffer set (cat. #00-5523-00) from eBioscience according to the manufacture's recommendation and subsequently intracellular staining with the following: BV750 anti-TNF-α (MAB11; cat. #566359, 5 μl), BUV395 anti-IFN-γ (B27; cat. #563563, 5 μl), BV510 anti-GranB (GB11; cat. #563388, 5 μl), BV421 anti-IL-10 (JES3-9D7; cat. #564053, 5 μl) from BD Biosciences; PE-Cy5.5 anti-IL-17 (BL168; cat. #512314, 5 μl) from Biolegend; and FITC anti-Perforin (pf-344; cat. #3465-7, 5 μl) from MABTECH for 30 minutes at room temperature. Flow cytometry acquisitions were performed on a FACSymphony A5 and examined using FACSDiva software (BD Biosciences)."}, "[2]": {"system": "human PBMC effector cells", "assay": "ADCC assay using SAMT-247", "description": "ADCC CEM-based assay. ADCC activity was assessed as previously described using EGFP-CEM-NKr-CCR5-SNAP cells that constitutively express GFP as targets (Rahman, M. A., et al, J Immunol 203, 2459-2471(2019)). Briefly, one million target cells were incubated with 50 μg of ΔV1 gp120 protein for 2 h at 37° C. After this coating, the target cells were washed and labeled with SNAP-SURFACE® ALEXA FLUOR® 647 (New England Biolabs, Connecticut, USA S9136S) per manufacturer recommendations for 30 min at RT. Plasma samples, heat inactivated at 56° C. for 30 min, were serially diluted (7 ten-fold dilutions starting at 1:10) and 100 μl were added to wells of a 96-well V-bottom plate (Millipore Sigma). 5000 target cells (50 μl) and 250,000 human PBMCs (50 μl) were added as effectors to each well to give an effector/target (E/T) ratio of 50:1. The plate was incubated at 37° C. for 2 h followed by two PBS washes. […] Specific killing was measured by loss of GFP from the SNAPAlexa647+ target cells. […] Normalized percent killing was calculated as: (killing in the presence of plasma-background)/(killing in the presence of KK17-background) X100. […]\nADCC assay using SAMT-247. […] SAMT-247 induced ADCC was measured by subtracting ADCC with no SAMT-247 treated effector cells from ADCC with SAMT-247 treated effector cells."}, "NKG2A^+ NK cells": {"system": "NKG2A^+ NK cells", "assay": "Intracellular cytokines of human blood NK cells using SAMT-247 and PMA stimulation with or without zinc chelator", "conditions": "human PBMCs", "description": "Intracellular cytokines of Human blood NK cells using SAMT-247 and PMA stimulation with or without zinc chelator. The levels of NKG2A^+ NK cells were measured in blood of healthy humans. Human PBMCs were thawed and cultured in R10 in the presence or absence of SAMT-247 and/or PMA for 12 hours. Cells were incubated with or without Zinc chelator TPEN (cat. #P4413-100 MG, 5 μM) for 12 h. Subsequently, PBMCs were surface stained with the following: BUV737 anti-CD3 (SP34-2; cat. #741872, 5 μl), Alexa700 anti-CD20 (2H7; cat. #560631, 5 μl), BV786 anti-CD45 (HI30; cat. #563716, 5 μl) from BD Biosciences; APC-H7 anti-CD11b (ICRF44; cat. #47-0118-42, 5 μl) from eBioscience and PE-Cy7 anti-NKG2A (Z199; cat. #B10246, 5 μl) from Beckman coulter for 30 minutes at room temperature. This was followed by permeabilization with FOX3-transcription buffer set (cat. #00-5523-00) from eBioscience according to the manufacture's recommendation and subsequently intracellular staining with the following: BV750 anti-TNF-α (MAB11; cat. #566359, 5 μl), BUV396 anti-IFN-γ (B27; cat. #563563, 5 μl), BV510 anti-GranB (GB11; cat. #563388, 5 μl) from BD Biosciences; and FITC anti-Perforin (pf-344; cat. #3465-7, 5 μl) from MABTECH for 30 minutes at room temperature. Flow cytometry acquisitions were performed on a FACSymphony A5 and examined using FACSDIVA™ software (BD Biosciences)."}},
  "data": [
    {"smiles": "CC(=O)Sc1ccccc1C(=O)NCCC(N)=O", "note": "[SAMT-247]", "values": [
      {"measurement": "IL-10 production in mucosal Th1 cells", "setting": "[1]", "value": "increase"},
      {"measurement": "TNF-α production in mucosal Th1 and Th2 cells", "setting": "[1]", "value": "significant decrease"},
      {"measurement": "Function", "setting": "[2]; NKG2A^+, Blood and mucosa, PMA", "value": ">ADCC"},
      {"measurement": "ADCC activity mediated by the plasma of all vaccinated animals", "setting": "[2]; effector human PBMCs pretreated with 100 nM SAMT-247 for 4 hours", "value": "significantly augments"},
      {"measurement": "expression of granzyme, perforin, or cytokines", "setting": "NKG2A^+ NK cells; absence of PMA stimulation", "value": "did not affect"},
      {"measurement": "percentage of IFN-γ and TNF-α producing NKG2A^+ cells", "setting": "NKG2A^+ NK cells; presence of PMA", "value": "decreased"},
      {"measurement": "percentage of NKG2A^+ NK cells expressing granzyme B and perforin", "setting": "NKG2A^+ NK cells; presence of PMA", "value": "increased"}
    ]}
  ]
}
